Measurements as given in ChEMBL document CHEMBL1201862, “PubChem BioAssay data set” (2004).
Active and inactive are the calls of the source.

Experiments:
Mu-type opioid receptor = Mu-type opioid receptor (Homo sapiens, UniProt P35372); assay type: functional, cell-based;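 further: U2OS cells with beta-arrestin recruitment to OPRM1 by beta-gal complementation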
[1] = system: Streptococcus sp. 'group A'; experiment: growth inhibition of control SK(-) GAS strain, dose response, counter-screen for streptokinase expression inhibitor project, luminescence, kanamycin, BacTiterGlo, confirmation (AID 1900); assay type: functional, organism-based
[2] = biological target: 5-hydroxytryptamine receptor 2A (Mus musculus, UniProt P35363); assay type: functional, cell-based;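 further: CHO-K1 cells with tagged receptor and beta-arrestin; agonist potency measured as compound-induced activation of the receptor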
Streptococcus = experiment: Group A Streptococcus viability loss, dose response, counter-screen for streptokinase expression inhibitor project, luminescence, BacTiterGlo (AID 1915); assay type: functional, organism-based;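 further: potency for reduction of bacterial viability or growth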
Streptokinase A = biological target: T1, Streptokinase A (Streptococcus pyogenes serotype M1, UniProt P10520); experiment: S. pyogenes streptokinase expression inhibitors, potency, dose response, plasminogen activation absorbance, OD405 (AID 1914); assay type: functional, Streptococcus pyogenes M1 GAS;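 further: secreted streptokinase activity via plasminogen activation per viability signal from cell pellet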
T1 sequence (P10520 whole entry): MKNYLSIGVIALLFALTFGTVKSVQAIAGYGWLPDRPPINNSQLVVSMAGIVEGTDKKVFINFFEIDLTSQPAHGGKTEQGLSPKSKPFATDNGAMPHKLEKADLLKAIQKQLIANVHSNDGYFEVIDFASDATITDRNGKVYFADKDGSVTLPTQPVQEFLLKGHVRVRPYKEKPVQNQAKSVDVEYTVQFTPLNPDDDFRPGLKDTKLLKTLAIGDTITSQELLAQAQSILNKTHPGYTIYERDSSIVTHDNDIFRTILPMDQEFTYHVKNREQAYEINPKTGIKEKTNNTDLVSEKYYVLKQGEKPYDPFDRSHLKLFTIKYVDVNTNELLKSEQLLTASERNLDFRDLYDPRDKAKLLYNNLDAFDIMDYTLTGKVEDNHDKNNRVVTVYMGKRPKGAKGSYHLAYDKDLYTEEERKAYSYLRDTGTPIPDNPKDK

Prothrombin = Prothrombin (Bos taurus, UniProt P00735); experiment: thrombin inhibition, dose response, biochemical, fluorescence polarization, uHTS hits (AID 602369); assay type: functional
[3] = biological target: 72 kDa type IV collagenase (Homo sapiens, UniProt P08253); experiment: Dose Response validation of uHTS RPN11 inhibitor hits using a MMP-2 Fluorescence assay.; assay type: functional
[4] = biological target: T2, Rac GTPase-activating protein 1 (Homo sapiens, UniProt Q9H0H5); experiment: MgcRacGAP GTPase-activating activity inhibitors, confirmation, biochemical, ADP Hunter fluorescence, primary and confirmatory (AID 624330); assay type: functional
T2 sequence (Q9H0H5 whole entry): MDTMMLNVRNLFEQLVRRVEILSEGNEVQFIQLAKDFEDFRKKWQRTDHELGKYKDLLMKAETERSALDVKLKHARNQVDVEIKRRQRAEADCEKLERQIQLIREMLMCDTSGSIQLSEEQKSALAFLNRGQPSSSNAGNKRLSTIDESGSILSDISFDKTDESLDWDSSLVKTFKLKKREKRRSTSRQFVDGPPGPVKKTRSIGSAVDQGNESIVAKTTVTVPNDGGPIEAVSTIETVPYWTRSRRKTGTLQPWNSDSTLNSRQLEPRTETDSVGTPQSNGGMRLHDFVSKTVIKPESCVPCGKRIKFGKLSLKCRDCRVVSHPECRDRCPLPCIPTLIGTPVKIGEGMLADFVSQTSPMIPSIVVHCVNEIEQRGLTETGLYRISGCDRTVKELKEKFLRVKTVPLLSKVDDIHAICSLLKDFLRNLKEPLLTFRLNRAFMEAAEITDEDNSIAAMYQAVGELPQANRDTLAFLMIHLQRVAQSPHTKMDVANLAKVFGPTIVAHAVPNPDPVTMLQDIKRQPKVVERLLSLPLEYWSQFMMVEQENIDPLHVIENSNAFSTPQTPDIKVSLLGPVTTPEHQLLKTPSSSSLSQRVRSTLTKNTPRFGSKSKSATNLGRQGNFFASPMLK

[5] = biological target: T3, Small ubiquitin-related modifier 1 (Homo sapiens, UniProt P63165); experiment: inhibitors of SUMO1 partner interactions, dose response, biochemical, FRET (AID 624383); assay type: functional; conditions: read-out: IC50_Mean
[6] = biological target: T3, Small ubiquitin-related modifier 1; experiment: inhibitors of SUMO1 peptide binding, dose response, biochemical, fluorescence polarization, uHTS hits (AID 624382); assay type: functional; conditions: read-out: IC50_Mean
[7] = biological target: 26S proteasome non-ATPase regulatory subunit 14 (Homo sapiens, UniProt O00487); experiment: inhibition of proteasome subunit RPN11 – biochemical, fluorescence polarization, uHTS hits, confirmation (AID 602368); assay type: functional
[8] = biological target: T4, Sentrin-specific protease 1 (Homo sapiens, UniProt Q9P0U3); experiment: potency of human SENP1 inhibitors, dose response, biochemical, kinetic FRET (AID 651697); assay type: functional; conditions: read-out: IC50_Mean
[9] = biological target: T4, Sentrin-specific protease 1; experiment: Dose response confirmation of small molecule inhibitors of the catalytic domain of the SUMO protease, SENP1 in a FRET assay.; assay type: functional; conditions: read-out: IC50_Mean
[10] = NIH/3T3 fibroblast cytotoxicity, dose response, cytotoxicity control for T. cruzi growth inhibitor project, cell-based, cherry-pick samples, set 2 (AID 651817); assay type: functional; conditions: NIH3T3
[11] = NIH3T3 fibroblast cytotoxicity, dose response, cytotoxicity control for PglD inhibitor project, cell-based, CellTiter-Glo luminescence, dry powder (AID 652044); assay type: functional
Beta-lactamase [12] = biological target: Beta-lactamase (Pseudomonas aeruginosa, UniProt Q79MP6);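 further: biochemical dose-response test of metallo-beta-lactamase enzyme inhibition, read out by epi-absorbance; purified recombinant IMP-1 metallo-beta-lactamase with nitrocefin as substrate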
[13] = biological target: T5, Alkaline phosphatase, tissue-nonspecific isozyme (Homo sapiens, UniProt P05186)
T5 sequence (P05186 whole entry): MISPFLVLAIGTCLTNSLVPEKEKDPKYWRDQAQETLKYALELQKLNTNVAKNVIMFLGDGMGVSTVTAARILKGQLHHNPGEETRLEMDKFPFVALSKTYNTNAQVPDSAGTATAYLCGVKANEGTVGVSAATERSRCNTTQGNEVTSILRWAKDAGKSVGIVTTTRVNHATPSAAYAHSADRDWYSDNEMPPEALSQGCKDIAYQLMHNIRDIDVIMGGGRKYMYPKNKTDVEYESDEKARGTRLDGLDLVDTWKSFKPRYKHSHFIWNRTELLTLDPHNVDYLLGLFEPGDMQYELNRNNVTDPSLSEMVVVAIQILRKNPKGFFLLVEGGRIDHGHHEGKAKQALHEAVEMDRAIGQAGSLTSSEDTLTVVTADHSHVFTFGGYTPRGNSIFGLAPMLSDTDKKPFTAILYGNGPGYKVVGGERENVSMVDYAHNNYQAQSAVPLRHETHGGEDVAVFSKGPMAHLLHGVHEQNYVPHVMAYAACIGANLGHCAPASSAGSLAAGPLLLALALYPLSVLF

[14] = biological target: ATP-dependent translocase ABCB1 (Homo sapiens, UniProt P08183); experiment: ABCB1 efflux pump inhibitor potency, dose response, Jurkat-DNR cells, JC-1, flow cytometry (AID 1689); assay type: functional
Beta-lactamase [15] = biological target: Beta-lactamase (Salmonella choleraesuis (strain SC-B67), UniProt Q5J463)
Beta-lactamase (Salmonella choleraesuis (strain SC-B67), UniProt Q5J463), sequence (Q5J463 whole entry): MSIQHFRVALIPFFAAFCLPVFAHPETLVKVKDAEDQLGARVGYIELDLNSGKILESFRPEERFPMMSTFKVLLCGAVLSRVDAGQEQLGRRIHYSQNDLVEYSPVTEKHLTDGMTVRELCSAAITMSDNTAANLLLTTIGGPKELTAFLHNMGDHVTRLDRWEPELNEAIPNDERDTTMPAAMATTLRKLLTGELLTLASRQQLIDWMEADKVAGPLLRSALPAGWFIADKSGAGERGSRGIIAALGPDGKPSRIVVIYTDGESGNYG

T3 sequence (P63165 whole entry): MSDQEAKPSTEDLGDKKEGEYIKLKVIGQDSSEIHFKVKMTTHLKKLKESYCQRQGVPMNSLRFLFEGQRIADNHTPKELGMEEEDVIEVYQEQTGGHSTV
T4 sequence (Q9P0U3 whole entry, the tested form may be a part): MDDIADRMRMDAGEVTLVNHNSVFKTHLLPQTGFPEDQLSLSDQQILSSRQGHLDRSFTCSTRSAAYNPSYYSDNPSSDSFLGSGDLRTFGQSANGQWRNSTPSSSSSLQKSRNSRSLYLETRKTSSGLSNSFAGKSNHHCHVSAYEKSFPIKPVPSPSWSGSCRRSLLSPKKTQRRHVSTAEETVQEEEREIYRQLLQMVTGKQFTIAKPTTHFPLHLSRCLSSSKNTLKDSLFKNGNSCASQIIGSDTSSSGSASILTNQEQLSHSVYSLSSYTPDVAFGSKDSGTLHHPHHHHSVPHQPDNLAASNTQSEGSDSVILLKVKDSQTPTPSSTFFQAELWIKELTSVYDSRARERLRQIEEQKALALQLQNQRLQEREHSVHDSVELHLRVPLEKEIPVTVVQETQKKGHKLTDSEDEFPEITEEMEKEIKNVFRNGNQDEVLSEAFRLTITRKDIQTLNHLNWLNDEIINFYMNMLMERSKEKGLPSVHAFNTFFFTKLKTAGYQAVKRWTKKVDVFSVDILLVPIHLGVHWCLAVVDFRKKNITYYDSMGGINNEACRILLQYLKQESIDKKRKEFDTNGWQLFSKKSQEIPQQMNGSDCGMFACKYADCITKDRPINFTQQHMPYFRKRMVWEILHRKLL
ATP-dependent translocase ABCB1, sequence (P08183 whole entry): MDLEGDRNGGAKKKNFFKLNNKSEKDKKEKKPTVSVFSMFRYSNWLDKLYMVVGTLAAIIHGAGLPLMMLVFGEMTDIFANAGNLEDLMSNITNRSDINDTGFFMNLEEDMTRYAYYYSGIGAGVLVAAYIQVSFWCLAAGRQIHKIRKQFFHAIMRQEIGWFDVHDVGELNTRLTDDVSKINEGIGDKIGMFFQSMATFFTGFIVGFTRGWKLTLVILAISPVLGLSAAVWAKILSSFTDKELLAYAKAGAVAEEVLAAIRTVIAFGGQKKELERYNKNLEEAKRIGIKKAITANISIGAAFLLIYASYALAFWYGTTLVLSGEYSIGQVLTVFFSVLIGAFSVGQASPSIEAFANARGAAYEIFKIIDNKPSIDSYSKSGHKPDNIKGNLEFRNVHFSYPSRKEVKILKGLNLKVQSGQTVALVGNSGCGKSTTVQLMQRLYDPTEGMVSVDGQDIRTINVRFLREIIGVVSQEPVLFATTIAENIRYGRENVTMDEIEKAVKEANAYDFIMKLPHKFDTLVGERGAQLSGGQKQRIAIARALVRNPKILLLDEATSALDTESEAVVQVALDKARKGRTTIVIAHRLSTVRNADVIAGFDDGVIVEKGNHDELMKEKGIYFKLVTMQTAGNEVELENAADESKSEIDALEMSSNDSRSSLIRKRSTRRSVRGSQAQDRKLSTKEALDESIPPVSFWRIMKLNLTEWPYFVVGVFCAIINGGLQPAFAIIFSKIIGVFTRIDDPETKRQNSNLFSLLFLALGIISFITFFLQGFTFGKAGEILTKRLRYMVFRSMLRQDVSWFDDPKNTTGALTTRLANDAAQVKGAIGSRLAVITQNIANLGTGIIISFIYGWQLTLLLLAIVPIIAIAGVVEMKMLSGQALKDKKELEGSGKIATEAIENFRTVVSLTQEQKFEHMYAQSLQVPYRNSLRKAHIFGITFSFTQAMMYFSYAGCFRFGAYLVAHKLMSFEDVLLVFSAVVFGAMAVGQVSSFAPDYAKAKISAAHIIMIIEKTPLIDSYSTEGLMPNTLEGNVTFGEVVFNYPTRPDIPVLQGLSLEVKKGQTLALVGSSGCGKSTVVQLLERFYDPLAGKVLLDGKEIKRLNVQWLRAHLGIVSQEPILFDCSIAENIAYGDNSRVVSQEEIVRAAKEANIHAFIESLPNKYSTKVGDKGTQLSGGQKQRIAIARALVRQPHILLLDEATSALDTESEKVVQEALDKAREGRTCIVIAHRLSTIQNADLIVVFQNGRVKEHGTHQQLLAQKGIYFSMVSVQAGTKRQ
5-hydroxytryptamine receptor 2A, sequence (P35363 whole entry): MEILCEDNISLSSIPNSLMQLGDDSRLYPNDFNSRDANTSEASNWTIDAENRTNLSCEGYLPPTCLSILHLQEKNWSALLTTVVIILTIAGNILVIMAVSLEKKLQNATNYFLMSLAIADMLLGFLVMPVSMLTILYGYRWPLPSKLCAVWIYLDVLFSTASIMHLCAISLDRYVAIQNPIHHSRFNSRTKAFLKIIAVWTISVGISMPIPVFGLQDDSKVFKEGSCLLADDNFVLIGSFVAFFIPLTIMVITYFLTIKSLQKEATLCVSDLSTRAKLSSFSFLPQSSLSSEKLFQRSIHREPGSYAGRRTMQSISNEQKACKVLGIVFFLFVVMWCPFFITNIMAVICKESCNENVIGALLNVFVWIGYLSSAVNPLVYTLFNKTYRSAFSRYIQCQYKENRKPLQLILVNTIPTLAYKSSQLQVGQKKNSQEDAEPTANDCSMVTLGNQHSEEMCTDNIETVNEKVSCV
Beta-lactamase (Pseudomonas aeruginosa, UniProt Q79MP6), sequence (Q79MP6 whole entry): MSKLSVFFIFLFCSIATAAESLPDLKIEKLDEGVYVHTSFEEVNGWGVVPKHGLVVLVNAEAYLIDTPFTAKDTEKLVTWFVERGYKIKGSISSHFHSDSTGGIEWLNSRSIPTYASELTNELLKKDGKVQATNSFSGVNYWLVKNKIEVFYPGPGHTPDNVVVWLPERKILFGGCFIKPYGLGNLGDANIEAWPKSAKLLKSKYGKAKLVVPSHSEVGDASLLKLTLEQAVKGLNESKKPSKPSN
Mu-type opioid receptor, sequence (P35372 whole entry): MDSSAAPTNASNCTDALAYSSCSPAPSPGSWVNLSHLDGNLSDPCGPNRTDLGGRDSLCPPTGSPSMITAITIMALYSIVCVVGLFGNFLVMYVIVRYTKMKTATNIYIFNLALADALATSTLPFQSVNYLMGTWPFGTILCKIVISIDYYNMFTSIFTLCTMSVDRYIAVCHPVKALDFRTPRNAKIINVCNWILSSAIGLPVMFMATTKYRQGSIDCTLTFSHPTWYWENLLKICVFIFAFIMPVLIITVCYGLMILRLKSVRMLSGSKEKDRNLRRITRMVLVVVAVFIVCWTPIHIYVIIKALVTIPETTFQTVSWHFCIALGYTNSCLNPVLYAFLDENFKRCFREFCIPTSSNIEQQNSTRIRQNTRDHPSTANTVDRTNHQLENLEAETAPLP
26S proteasome non-ATPase regulatory subunit 14, sequence (O00487 whole entry): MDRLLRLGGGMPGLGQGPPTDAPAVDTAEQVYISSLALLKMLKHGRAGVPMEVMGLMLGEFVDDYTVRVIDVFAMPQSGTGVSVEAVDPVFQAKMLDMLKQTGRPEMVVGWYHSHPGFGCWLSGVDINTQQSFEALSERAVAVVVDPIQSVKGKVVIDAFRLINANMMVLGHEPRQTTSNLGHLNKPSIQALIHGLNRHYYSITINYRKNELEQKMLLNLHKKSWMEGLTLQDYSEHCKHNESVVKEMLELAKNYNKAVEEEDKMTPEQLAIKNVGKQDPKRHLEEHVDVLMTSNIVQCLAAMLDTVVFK
72 kDa type IV collagenase, sequence (P08253 whole entry): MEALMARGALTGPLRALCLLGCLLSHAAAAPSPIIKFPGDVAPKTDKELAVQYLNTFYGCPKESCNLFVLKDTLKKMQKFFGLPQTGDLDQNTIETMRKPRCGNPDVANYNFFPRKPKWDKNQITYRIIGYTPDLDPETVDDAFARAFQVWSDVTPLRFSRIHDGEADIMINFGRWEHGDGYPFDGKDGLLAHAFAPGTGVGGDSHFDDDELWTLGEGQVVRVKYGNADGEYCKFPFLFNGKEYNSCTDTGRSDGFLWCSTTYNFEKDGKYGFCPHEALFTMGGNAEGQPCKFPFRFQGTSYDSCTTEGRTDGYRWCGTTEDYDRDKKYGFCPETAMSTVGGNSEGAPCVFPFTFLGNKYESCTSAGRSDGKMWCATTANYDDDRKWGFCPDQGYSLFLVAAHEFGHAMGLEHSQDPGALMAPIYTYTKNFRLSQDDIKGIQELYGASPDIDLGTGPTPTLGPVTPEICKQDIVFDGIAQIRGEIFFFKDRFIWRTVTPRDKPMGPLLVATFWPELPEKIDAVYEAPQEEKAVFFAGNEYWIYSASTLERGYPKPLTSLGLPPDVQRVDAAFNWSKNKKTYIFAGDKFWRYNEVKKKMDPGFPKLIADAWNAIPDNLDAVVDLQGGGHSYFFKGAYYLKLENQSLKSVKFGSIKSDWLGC

**Q.** With `Nc1nc(CN2CCN(c3ccccc3)CC2)nc(N2CCCc3ccccc32)n1` as the compound, how does the EC50 (Mu-type opioid receptor) read?
**A.** Its EC50 is 92.5 µM (inactive).

**Q.** What about the EC50 [1] of the same compound?
**A.** Its EC50 is 9.04 µM (active).

**Q.** What about the EC50 [2] of the same compound?
**A.** Its EC50 is 0.939 µM (active).

**Q.** And the EC50 (Streptococcus)?
**A.** Its EC50 is > 150 µM (not active).

**Q.** What about the EC50 (Streptokinase A) of the same compound?
**A.** The EC50 was > 150 µM (not active).

**Q.** With `CCCc1c(C)nc2ccc(C(=O)O)cc2c1S` as the compound, how does the IC50 (Prothrombin) read?
**A.** The IC50 was 72.7 µM (active).

**Q.** And the IC50 [3]?
**A.** Its IC50 is > 100 µM (inactive).

**Q.** What about the IC50 [4] of the same compound?
**A.** The IC50 was 72.6 µM (active).

**Q.** And the IC50 [5]?
**A.** Its IC50 is 18 µM (active).

**Q.** What about the IC50 [6] of the same compound?
**A.** The IC50 was > 66.6 µM (inactive).

**Q.** And the IC50 [7]?
**A.** The IC50 was 22.8 µM (active).

**Q.** For `CC(=O)Oc1ccc(Cl)cc1/C=C/c1ccc2ccccc2n1`, which IC50 [8] is on record?
**A.** Its IC50 is 3.28 µM (active).

**Q.** And the IC50 [9]?
**A.** The IC50 was 2.22 µM (active).

**Q.** With `C[C@@H]1CN([C@H](C)CO)C(=O)c2cccc(NC(=O)c3nc4ccccc4s3)c2O[C@H]1CN(C)S(=O)(=O)c1ccccc1` as the compound, how does the AC50 [10] read?
**A.** The AC50 was 39 µM (inactive).

**Q.** For `COc1ccc(C#Cc2cnc3c(c2)C(=O)N([C@@H](C)CO)C[C@H](C)[C@H](CN(C)CC2CCCC2)O3)cc1`, which AC50 [11] is on record?
**A.** The AC50 was 25.2 µM (active).

**Q.** For `CCN1/C(=C/C=C/c2oc3ccc4ccccc4c3[n+]2CC)Oc2ccc3ccccc3c21`, which IC50 (Beta-lactamase [12]) is on record?
**A.** Its IC50 is > 59.6 µM (inactive).

**Q.** What about the EC50 [13] of the same compound?
**A.** The EC50 was > 100 µM (not active).

**Q.** And the EC50 [14]?
**A.** Its EC50 is 0.713 µM (active).

**Q.** What about the IC50 (Beta-lactamase [15]) of the same compound?
**A.** Its IC50 is > 59.6 µM (inactive).
